From patent publication US20250360145A1, “CSF-1R INHIBITORS AND USES THEREOF” (Myrobalan Therapeutics, Inc., priority 2022, published 2025)
Where two headings read alike, the source gives them in different places.

Tests used:
EOC2 cell = test: Cell proliferation assay, EOC2; format: cell-based, mouse; details: EOC2 cells, 72 hours treatment, read-out: ECO2 EC50
CSF-1R = CSF-1R (Homo sapiens (Human), UniProt P07333); test: Biochemical HTRF kinase assay, CSF-1R; details: Table 2; recombinant human CSF-1R;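 further: enzyme incubated with inhibitor plus a substrate and ATP mix for one hour at room temperature before HTRF detection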
CSF-1R, sequence (P07333 20-972): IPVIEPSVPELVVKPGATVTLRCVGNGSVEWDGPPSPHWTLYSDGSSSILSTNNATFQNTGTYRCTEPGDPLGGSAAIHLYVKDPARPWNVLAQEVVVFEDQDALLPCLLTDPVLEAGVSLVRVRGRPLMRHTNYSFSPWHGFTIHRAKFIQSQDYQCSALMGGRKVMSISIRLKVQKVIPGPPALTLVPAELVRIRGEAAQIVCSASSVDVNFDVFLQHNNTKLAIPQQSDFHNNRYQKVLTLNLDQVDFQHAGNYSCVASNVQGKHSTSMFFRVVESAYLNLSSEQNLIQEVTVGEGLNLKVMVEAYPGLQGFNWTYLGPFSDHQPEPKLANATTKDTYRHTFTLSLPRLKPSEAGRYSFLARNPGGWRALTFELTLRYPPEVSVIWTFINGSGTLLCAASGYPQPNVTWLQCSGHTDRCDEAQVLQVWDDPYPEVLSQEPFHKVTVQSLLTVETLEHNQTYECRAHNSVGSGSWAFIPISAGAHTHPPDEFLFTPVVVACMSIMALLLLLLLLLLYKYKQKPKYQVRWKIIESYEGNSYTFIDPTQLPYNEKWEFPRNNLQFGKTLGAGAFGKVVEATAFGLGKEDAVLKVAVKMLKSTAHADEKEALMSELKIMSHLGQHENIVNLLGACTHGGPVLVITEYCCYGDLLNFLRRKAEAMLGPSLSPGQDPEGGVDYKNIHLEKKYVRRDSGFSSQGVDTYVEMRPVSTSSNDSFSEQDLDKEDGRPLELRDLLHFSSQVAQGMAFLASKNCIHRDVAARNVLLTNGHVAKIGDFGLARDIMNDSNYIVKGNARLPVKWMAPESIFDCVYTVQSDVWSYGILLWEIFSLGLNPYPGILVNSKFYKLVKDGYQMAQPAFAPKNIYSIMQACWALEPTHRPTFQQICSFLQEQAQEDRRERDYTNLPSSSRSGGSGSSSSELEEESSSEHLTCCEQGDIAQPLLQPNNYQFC

[1] = tested on: Ba/F3_CSF-1R (stably expressing human CSF-1R kinase); test: Cell proliferation assay, Ba/F3_CSF-1R; format: cell-based; details: Ba/F3_CSF-1R cells, 72 hours treatment, read-out: CSF-1R BaF3 EC50

| SMILES | EC50 (EOC2 cell; Mus musculus, 72 h) | IC50 (CSF-1R) | EC50 [1] | EC50 (EOC2 cell) | EC50 ([1]; BaF3, 72 h) |
| --- | --- | --- | --- | --- | --- |
| COc1cnc2c(Cc3cnc(OCc4cnc5c(c4)CC[C@H]5OC)c(OC)c3)ccnc2c1 (stereo in doubt) [Example 104] | 41 nM | 2.4 nM | 53.2 nM |  |  |
| COc1cnc2c(Cc3cnc(OCc4cnc5c(c4)CC[C@H]5OC)c(OC)c3)ccnc2c1 (stereo in doubt) [Example 105] |  | 2.4 nM | 108 nM | 65 nM |  |
| COc1cnc2c(Cc3cnc(OCc4cc5n(n4)CCO[C@H]5C)c(OC)c3)ccnc2c1 (stereo in doubt) [Example 114] |  | 1.7 nM | 75.7 nM | 37.9 nM |  |
| COc1cnc2c(Cc3cnc(OCc4cc5n(n4)CCO[C@H]5C)c(OC)c3)ccnc2c1 (stereo in doubt) [Example 115] |  | 4 nM | 158 nM | 81.9 nM |  |
| COc1ccc(COc2ccc(Cc3ccnc4cnccc34)cc2OC)cc1 [Example 2, 4-(3-methoxy-4-((4-methoxybenzyl)oxy)benzyl)-1,7-naphthyridine] | 126 nM | 13.4 nM |  |  | 75 nM |
| COc1ccc(COc2ccc(Cc3ccnc4cc(OC)cnc34)cc2OC)cc1 [Example 4] | 22.6 nM | 8.7 nM |  |  | 44.6 nM |
| COc1ccc(COc2ccc(Cc3ncnc4cc(OC)ccc34)cc2OC)cc1 [Example 5] | 310 nM | 21 nM |  |  | 263 nM |
| COc1ccc2c(Cc3ccc(OCc4ccn5ccnc5c4)c(OC)c3)ccnc2c1 [Example 6, 4-(4-(imidazo[1,2-a]pyridin-7-ylmethoxy)-3-methoxybenzyl)-7-methoxy quinoline] | 592 nM | 8.2 nM |  |  | 551 nM |
| COc1ccc2c(Cc3ccc(OCc4ccc5nccn5c4)c(OC)c3)ccnc2c1 [Example 7] | 328 nM | 5.3 nM |  |  | 305 nM |
| COc1ccc2c(Cc3ccc(OCc4ccc(C(F)(F)F)cc4)c(OC)c3)ccnc2c1 [Example 14] | 132 nM | 118 nM |  |  | 157 nM |
| COc1ccc(COc2ccc(Cc3ccnc4ccncc34)cc2OC)cc1 [Example 17] | 180 nM | 5.7 nM |  |  | 185 nM |
| COc1ccc2c(Cc3ccc(OCc4cn5ccccc5n4)c(OC)c3)ccnc2c1 [Example 18, 4-(4-(imidazo[1,2-a]pyridin-2-ylmethoxy)-3-methoxybenzyl)-7-methoxy quinoline] | 272 nM | 9.4 nM |  |  | 196 nM |
| COc1ccc2c(Cc3ccc(OCc4ccc5ccnn5c4)c(OC)c3)ccnc2c1 [Example 20] | 130 nM | 11 nM |  |  | 134 nM |
| COc1ccc2c(Cc3ccc(OCc4ccc5ncnn5c4)c(OC)c3)ccnc2c1 [Example 21] | 492 nM | 12.6 nM |  |  | 509 nM |
| COc1ccc(COc2ccc(Cc3ccnc4ccc(F)cc34)cc2OC)cc1 [Example 24] | 239 nM | 25 nM |  |  | 177 nM |
| COc1ccc2c(Cc3ccc(OCc4ccn5nccc5c4)c(OC)c3)ccnc2c1 [Example 30] | 249 nM | 7.9 nM |  |  | 214 nM |
| COc1ccc2c(Cc3cnc(OCc4cnn(C)c4)c(OC)c3)ccnc2c1 [Example 31] | > 1000 nM | 21.3 nM |  |  | > 1000 nM |
| COc1cnc2c(Cc3cnc(OCc4ccc(OC)nn4)c(OC)c3)ccnc2c1 [Example 32, 3-methoxy-8-((5-methoxy-6-((6-methoxypyridazin-3-yl)methoxy)pyridin-3-yl)methyl)-1,5-naphthyridine] | 129 nM | 20.1 nM |  |  | 267 nM |
| COc1ccc2c(Cc3ccc(OCc4ccc5c(c4)OC(F)(F)O5)c(OC)c3)ccnc2c1 [Example 33] | 89.5 nM | 203 nM |  |  | 218 nM |
| COc1ccc2c(Cc3ccc(OCc4cc(C)no4)c(OC)c3)ccnc2c1 [Example 34] | 462 nM | 23.2 nM |  |  | 493 nM |
| COc1ccc2c(Cc3ccc(OCc4cnc(C)s4)c(OC)c3)ccnc2c1 [Example 35] | 392 nM | 16.1 nM |  |  | 449 nM |
| COc1ccc2c(Cc3ccc(OCc4cc(C)on4)c(OC)c3)ccnc2c1 [Example 36] | 486 nM | 39.8 nM |  |  | 637 nM |
| COc1ccc(COc2ncc(Cc3ccnc4cc(OC)cnc34)cc2OC)cc1 [Example 38] | 40.8 nM | 2.1 nM |  |  | 210 nM |
| COc1cnc2c(Cc3cnc(OCc4ccc(OC)nc4)c(OC)c3)ccnc2c1 [Example 39] | 32.1 nM | 1 nM |  |  | 46.5 nM |
| COc1cnc(COc2ccc(Cc3ccnc4cc(OC)ccc34)cc2OC)nc1 [Example 40] | 956 nM | 93.7 nM |  |  | > 1000 nM |
| COc1cnc2c(Cc3cnc(OCc4cc(F)cnc4OC)c(OC)c3)ccnc2c1 [Example 41] | > 1000 nM | 39.9 nM |  |  | > 1000 nM |

| SMILES | EC50 (EOC2 cell; Mus musculus, 72 h) | IC50 (CSF-1R) | EC50 [1] | EC50 (EOC2 cell) | EC50 ([1]; BaF3, 72 h) |
| --- | --- | --- | --- | --- | --- |
| COc1cnc2c(Cc3cnc(OCc4cnc(C)s4)c(OC)c3)ccnc2c1 [Example 42] | 408 nM | 14.7 nM |  |  | 510 nM |
| COc1cnc2c(Cc3cnc(OCc4cnn(C(C)C)c4)c(OC)c3)ccnc2c1 [Example 43] | > 1000 nM | 2.8 nM |  |  | > 1000 nM |
| COc1cnc2c(Cc3cnc(OCc4cnc(OC)cn4)c(OC)c3)ccnc2c1 [Example 44] | 171 nM | 8.6 nM |  |  | 457 nM |
| COc1cnc2c(Cc3cnc(OCc4cc(C)no4)c(OC)c3)ccnc2c1 [Example 46, 5-(((3-methoxy-5-((7-methoxy-1,5-naphthyridin-4-yl)methyl)pyridin-2-yl)oxy)methyl)-3-methylisoxazole] | 201 nM | 22.4 nM |  |  | 332 nM |
| CCn1cc(COc2ncc(Cc3ccnc4cc(OC)cnc34)cc2OC)cn1 [Example 47] | > 1000 nM | 2 nM |  |  | > 1000 nM |
| COc1cnc2c(Cc3cnc(OCc4ccn(C)n4)c(OC)c3)ccnc2c1 [Example 48] | 296 nM | 8.2 nM |  |  | 586 nM |
| COc1cnc2c(Cc3cnc(OCc4ccnn4C)c(OC)c3)ccnc2c1 [Example 49] | > 1000 nM | 62.1 nM |  |  | > 1000 nM |
| COc1cnc2c(Cc3cnc(OCc4cnc(OC)nc4)c(OC)c3)ccnc2c1 [Example 50] | 312 nM | 15.2 nM |  |  | 481 nM |
| COc1cnc2c(Cc3cnc(OCc4cc(C)on4)c(OC)c3)ccnc2c1 [Example 51] | 225 nM | 105 nM |  |  | 590 nM |
| COc1ccc(COc2ncc(Cc3ccnc4cc(OC)ncc34)cc2OC)nc1 [Example 52] | 209 nM | 49.7 nM |  |  | 482 nM |
| COc1ccc(COc2ncc(Cc3ccnc4ccc(OC)nc34)cc2OC)nc1 [Example 53] | 278 nM | 60.1 nM |  |  | 338 nM |
| COc1ccc(COc2ncc(Oc3ccnc4cc(OC)cnc34)cc2OC)nc1 [Example 54, 3-methoxy-8-((5-methoxy-6-((5-methoxypyridin-2-yl)methoxy)pyridin-3-yl)oxy)-1,5-naphthyridine] | 317 nM | 87.1 nM |  |  | 800 nM |
| CCc1cc(COc2ncc(Cc3ccnc4cc(OC)cnc34)cc2OC)on1 [Example 57] | 98.6 nM | 19 nM |  |  | 178 nM |
| COc1cnc2c(Cc3cnc(OCc4ccc(C(F)F)nc4)c(OC)c3)ccnc2c1 [Example 60] | 84.1 nM | 5.4 nM |  |  | 97.3 nM |
| COc1cnc2c(Cc3cnc(OCc4ccc(C(F)(F)F)cn4)c(OC)c3)ccnc2c1 [Example 61] | 47.4 nM | 3.9 nM |  |  | 70.6 nM |
| COc1ccc(COc2ncc(Cc3ccnc4cc(C)cnc34)cc2OC)nc1 [Example 63] | 688 nM | 16.7 nM |  |  | 236 nM |
| COc1ccc(COc2ncc(Cc3ccnc4cc(F)cnc34)cc2OC)nc1 [Example 64] | 973 nM | 21.8 nM |  |  | 400 nM |
| COc1ccc(COc2ncc(Cc3ccnc4cc(C#N)cnc34)cc2OC)nc1 [Example 65, 8-((5-methoxy-6-((5-methoxypyridin-2-yl)methoxy)pyridin-3-yl)methyl)-1,5-naphthyridine-3-carbonitrile] | > 1000 nM | 26.9 nM |  |  | 787 nM |
| COc1cnc2c(Cc3cnc(OCc4ccc(=O)n(C)c4)c(OC)c3)ccnc2c1 [Example 67] | > 1000 nM | 9.3 nM |  |  | > 1000 nM |
| COc1ccc(COc2ncc(Cc3ccnc4cc(OC)cnc34)cc2OC(F)F)nc1 [Example 68, 8-((5-(difluoromethoxy)-6-((5-methoxypyridin-2-yl)methoxy)pyridin-3-yl)methyl)-3-methoxy-1,5-naphthyridine] | > 1000 nM | 99.2 nM |  |  | > 1000 nM |
| COc1cnc2c(Cc3cnc(OCc4ccc(C5CC5)cn4)c(OC(F)F)c3)ccnc2c1 [Example 69] | > 1000 nM | 203 nM |  |  | > 1000 nM |
| COc1cnc2c(Cc3cnc(OCc4nc(C)no4)c(OC)c3)ccnc2c1 [Example 70] | > 1000 nM | 272 nM |  |  | > 1000 nM |
| COCc1ccc(COc2ncc(Cc3ccnc4cc(OC)cnc34)cc2OC)nc1 [Example 71] | 168 nM | 25.4 nM |  |  | 359 nM |
| COc1cnc2c(Cc3cnc(OCc4cc5n(n4)CCN(C)C5)c(OC)c3)ccnc2c1 [Example 75] | 448 nM | 32 nM |  |  | 949 nM |
| COc1cnc2c(Cc3cnc(OCc4ccc(C5COC5)cn4)c(OC)c3)ccnc2c1 [Example 76] | 82.1 nM | 13.6 nM |  |  | 302 nM |
| COc1ccc(COc2ncc(C(C)c3ccnc4cc(OC)cnc34)cc2OC)nc1 (stereo not drawn) [Example 77] | 360 nM | 101 nM |  |  | 543 nM |
